Assay results from patent publication US20190307754A1, “PDE9 INHIBITORS FOR TREATMENT OF PERIPHERAL DISEASES” (IMARA, INC., priority 2016, published 2019).
“And” between values parts separate entries of the source, which are not always exact repeats. Equal entries are not always repeated. “Also recorded” adds a separate entry of the source. Where two headings read alike, the source gives them in different places.

Assays:
PDE1 = PDE1 inhibition assay; format: biochemical
Procedure: Reactions were initiated by addition of the cyclic nucleotide substrate, and reactions were allowed to proceed for 1 h at room temperature before being terminated through mixing with 20 μL (0.2 mg) yttrium silicate SPA beads (PerkinElmer).

[1] = tested on: K562 erythroleukemic cells; test: HbF in cultured K562 cells; format: cell-based; conditions: 3 days
Procedure: K562 cells were cultured at 37° C. in IMDM® to which the required concentrations of test items or DMSO (negative control) had been added. Plated cells were maintained at 37° C. for 3 days at the end of which the presence of HbF within cells was detected by flow cytometry.

[2] = target: hERG-mediated potassium currents (Homo sapiens, UniProt Q12809); test: in vitro hERG assay; format: cell-based; conditions: concentrations up through 10^−5 M
hERG-mediated potassium currents, sequence (Q12809 whole entry): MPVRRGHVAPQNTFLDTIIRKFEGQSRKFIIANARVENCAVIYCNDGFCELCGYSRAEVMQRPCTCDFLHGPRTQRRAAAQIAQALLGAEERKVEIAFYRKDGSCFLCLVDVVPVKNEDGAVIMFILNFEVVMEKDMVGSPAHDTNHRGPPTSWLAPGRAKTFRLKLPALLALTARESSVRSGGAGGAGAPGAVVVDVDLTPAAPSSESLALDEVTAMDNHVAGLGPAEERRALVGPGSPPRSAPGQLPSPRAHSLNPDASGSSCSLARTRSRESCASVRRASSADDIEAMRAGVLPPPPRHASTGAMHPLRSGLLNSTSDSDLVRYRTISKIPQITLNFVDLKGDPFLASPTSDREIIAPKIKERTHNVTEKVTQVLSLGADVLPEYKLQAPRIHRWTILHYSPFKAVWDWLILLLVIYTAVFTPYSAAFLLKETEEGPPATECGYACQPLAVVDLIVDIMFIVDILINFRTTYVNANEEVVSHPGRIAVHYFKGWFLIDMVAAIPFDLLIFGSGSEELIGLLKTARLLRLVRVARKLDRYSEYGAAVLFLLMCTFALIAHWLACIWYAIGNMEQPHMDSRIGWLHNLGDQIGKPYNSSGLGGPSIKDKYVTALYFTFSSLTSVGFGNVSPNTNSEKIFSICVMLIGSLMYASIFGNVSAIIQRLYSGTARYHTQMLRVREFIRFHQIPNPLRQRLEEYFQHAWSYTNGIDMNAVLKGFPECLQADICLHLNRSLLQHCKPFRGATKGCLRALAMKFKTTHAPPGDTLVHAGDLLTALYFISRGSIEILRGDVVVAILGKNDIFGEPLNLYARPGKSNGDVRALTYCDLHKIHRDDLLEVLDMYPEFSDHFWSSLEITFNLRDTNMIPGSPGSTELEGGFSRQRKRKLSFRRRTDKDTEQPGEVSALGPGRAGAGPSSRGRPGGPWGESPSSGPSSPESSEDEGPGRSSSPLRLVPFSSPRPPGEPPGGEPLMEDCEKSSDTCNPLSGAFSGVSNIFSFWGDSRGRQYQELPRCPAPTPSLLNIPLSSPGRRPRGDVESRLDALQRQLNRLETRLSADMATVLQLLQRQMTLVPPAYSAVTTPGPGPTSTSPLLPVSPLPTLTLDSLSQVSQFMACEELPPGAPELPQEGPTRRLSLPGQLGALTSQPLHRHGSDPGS
Text: (§1) The safety pharmacology assessment of Compound P3.1 included an in vitro hERG assay, neurofunctional and respiratory studies in rats, and a cardiovascular study in beagle dogs.

Han Wistar Rats = test: Neurofunctional study in Han Wistar rats; format: in vivo, rat
Procedure: as §1
Single oral doses of 250, 500, and 1000 mg/kg Compound P3.1 in Han Wistar Rats had no effect on clinical observations, home cage observations, handheld observations, or body temperatures.

in vivo [3] = format: in vivo; conditions: rat, in vivo, 1000 mg/kg; read-out: plasma exposure (AUC0-24)
Text: as §1
(§2) The death was considered test article related. […]

rat [4] = test: in vivo; format: in vivo
Text: as §1, §2

conscious dogs = test: Cardiovascular study in beagle dogs; format: in vivo, dog
Procedure: as §1
In a cardiovascular study conducted in 4 dogs, treatments were performed by oral gavage according to a crossover design after allowing a minimum washout period of 48 hours. In conscious dogs, Compound P3.1 at doses of 10 and 25 mg/kg had no effect on arterial blood pressure, heart rate, body temperature, cardiac conduction times, ventricular repolarization duration, QT variability, or ST segment.

[5] = Plasma protein binding, rat; format: in vitro ADME; conditions: read-out: mean plasma fraction bound (converted)
[6] = Plasma protein binding, dog; format: in vitro ADME; conditions: read-out: mean plasma fraction bound (converted)
[7] = Plasma protein binding, monkey; format: in vitro ADME; conditions: read-out: mean plasma fraction bound (converted)
[8] = Plasma protein binding, humans; format: in vitro ADME; conditions: human, read-out: mean plasma fraction bound (converted)
in vivo [9] = conditions: rat, 250 mg/kg/day
Procedure: Animals were observed daily from the start of the dosing and body weights and food intake were recorded at regular intervals. Blood samples were collected from a subset of animals in each group at 6 time points on Day 7 for TK evaluation.

in vivo [10] = conditions: rat
Procedure: (§3) In a 14-day repeat-dose toxicity study in rats, Compound P3.1 was orally administered (gavage) at doses of 0 (vehicle), 50, 200, and 400 mg/kg/day.

rat [11] = test: in vivo
Procedure: as §3

[12] = Fourteen-day repeat-dose toxicity study in beagle dogs; format: in vivo, dog; conditions: beagle, in vivo, dog; for NOAEL at 14 days: both sexes, oral, males and females, 14-day; for Cmax / AUC(0-t): po; for AUC(0-t): read-out: AUC0-24
Procedure: (§4) In a GLP 14-day repeat-dose toxicity study in dogs, Compound P3.1 was orally administered at doses of 0, 10, 35, or 75 mg/kg/day. […] The no-observed-adverse-effect level (NOAEL) was considered to be 35 mg/kg/day in males and females.

dog = test: as above; format: in vivo
Procedure: as §4

[13] = Bacterial reverse mutation assay; format: cell-based
Text: The genotoxicity evaluation of Compound P3.1 consisted of a bacterial reverse mutation assay, a chromosome aberration study, and a in vivo rat micronucleus study. Compound P3.1 was negative in all 3 assays.

[14] = Stability study of drug substance (ambient and 40-45 °C); format: physicochemical; conditions: ambient temperature and 40° C.−45° C., 3-month period
Procedure: A stability study has been completed on Compound P3.1. Samples of Compound P3.1 were aliquoted into double-walled polyethylene pouches, which were tied off and then heat-sealed in an aluminum pouch. Samples were stored at ambient temperature and at 40° C.−45° C. (no humidity control) with testing performed over a 3-month period.

CYP2B6 = test: CYP induction in human hepatocytes, CYP2B6
[15] = female, 10 mg, females, 10 mg, Day 1
[16] = female, 10 mg, females, 10 mg, Day 14
[17] = female, 35 mg, females, 35 mg, Day 1
[18] = female, 35 mg, females, 35 mg, Day 14
[19] = female, 75 mg/kg/day, females, 75 mg, Day 1
[20] = female, 75 mg/kg/day, females, 75 mg, Day 14
[21] = male, 10 mg, males, 10 mg, Day 1
[22] = male, 10 mg, males, 10 mg, Day 14
[23] = male, 35 mg, males, 35 mg, Day 1
[24] = male, 35 mg, males, 35 mg, Day 14
[25] = male, 75 mg/kg/day, males, 75 mg, Day 1
[26] = male, 75 mg/kg/day, males, 75 mg, Day 14

Structure (SMILES): C[C@@H]1CN(Cc2ncccn2)C[C@H]1c1cn2c(C3CCOCC3)ncc2c(=O)[nH]1 (single isomer, unassigned) [Compound P3.1]
- IC50 (PDE1): 3000 nM
- HbF positive cells ([1]; 1 μM): 68.7%
- HbF positive cells ([1]; 3 μM): 75.6%
- HbF positive cells ([1]; 10 μM): 85.6%
- inhibitory effect on hERG-mediated potassium currents [2]: did not have an inhibitory effect; also recorded: no inhibitory effect
- adverse finding (Han Wistar Rats; >500 mg/kg, 0.5 and 24 hours post dosing): increased incidence of no visible-approach response
- non-adverse findings at 250 mg/kg (Han Wistar Rats; single oral 250 mg/kg): transient decrease in sensory response (approach response)
- non-adverse findings at 500 and 1000 mg/kg (Han Wistar Rats; single oral 500 and 1000 mg/kg): decreases in body weight/weight gain, motor activity (number of rears), and sensory response (tail pinch response)
- clinical, home cage, handheld observations, body temperatures (Han Wistar Rats; single oral doses of 250, 500, and 1000 mg/kg): no effect
- AUC(0-t) (in vivo [3]): > 500 µg·h/mL
- mortality (rat [4]; 1000 mg/kg, approximately 4.8 hours after dosing): One male rat was found dead
- exposure relative to anticipated efficacious dose (rat [4]; rat, in vivo): approximately 48 fold
- respiratory functions (rat [4]; rat, in vivo, po, 1000 mg/kg): transient increases in respiratory rate and tidal volume
- cardiovascular effects (conscious dogs; oral gavage 75 mg/kg): induced tachycardia as well as a slight, progressive and delayed decrease in blood pressure and shortened conduction times
- arterial blood pressure, heart rate, body temperature, conduction times, repolarization, QT variability, ST segment (conscious dogs; oral gavage 10 and 25 mg/kg): no effect
- fraction unbound [5]: 0.748
- fraction unbound [6]: 0.771
- fraction unbound [7]: 0.814
- fraction unbound [8]: 0.686
- AUC0-24 (in vivo [9]; male, Crl:WI(Han), po): 198 µg·h/mL
- Cmax (in vivo [9]; male, Crl:WI(Han), po): 18800 ng/mL
- AUC(0-t) (in vivo [9]; male, Crl:WI(Han), po, AUC0-24): 226 µg·h/mL
- Cmax (in vivo [9]; male, Crl:WI(Han), po, Cmax): 16500 ng/mL
- Cmax and systemic exposure of Compound P3.1 in isolation vs in combination with HU (in vivo [9]): similar
- NOAEL at 14 days (in vivo [10]; female): 50 mg/kg/day and 50 mg/kg
- NOAEL at 14 days (in vivo [10]; male): 200 mg/kg/day and 200 mg/kg
- AUC(0-t) (in vivo [10]; 400 mg/kg/day, plasma exposure (AUC0-24)): > 354 µg·h/mL
- exposure relative to anticipated efficacious dose (rat [11]): > 10 fold
- exposure vs dose (rat [11]): increased proportionally with dose
- findings at highest dose (rat [11]; 400 mg/kg/day): reductions in body weight, weight gain, and food intake, and premature deaths
- NOAEL at 14 days ([12]; read-out: no-observed-adverse-effect level (NOAEL)): 35 mg/kg/day
- NOAEL at 14 days ([12]; read-out: no-observed-adverse-effect-level (NOAEL)): 35 mg/kg
- Cmax [12, 15]: 1970 ng/mL
- AUC(0-t) [12, 15]: 24.8 µg·h/mL
- Cmax [12, 16]: 3780 ng/mL
- AUC(0-t) [12, 16]: 25.4 µg·h/mL
- Cmax [12, 17]: 5180 ng/mL
- AUC(0-t) [12, 17]: 66.7 µg·h/mL
- Cmax [12, 18]: 10000 ng/mL
- AUC(0-t) [12, 18]: 87.9 µg·h/mL
- Cmax [12, 19]: 13200 ng/mL
- AUC(0-t) [12, 19]: 152 µg·h/mL
- Cmax [12, 20]: 22100 ng/mL
- AUC(0-t) [12, 20]: 224 µg·h/mL
- Cmax [12, 21]: 2730 ng/mL
- AUC(0-t) [12, 21]: 29.7 µg·h/mL
- Cmax [12, 22]: 3120 ng/mL
- AUC(0-t) [12, 22]: 24.1 µg·h/mL
- Cmax [12, 23]: 11200 ng/mL
- AUC(0-t) [12, 23]: 114 µg·h/mL
- Cmax [12, 24]: 13100 ng/mL
- AUC(0-t) [12, 24]: 98.6 µg·h/mL
- Cmax [12, 25]: 11000 ng/mL
- AUC(0-t) [12, 25]: 137 µg·h/mL
- Cmax [12, 26]: 18300 ng/mL
- AUC(0-t) [12, 26]: 193 µg·h/mL
- deaths (dog; dog, 10, 35, or 75 mg/kg/day, 14 days): No deaths were observed at any dose
- findings (dog; dog, 35 or 75 mg/kg/day, oral, 14 days): emesis, liquid/loose feces, reduced food intake, and losses in body weight in some individuals
- mean exposures vs dose (dog; dog, Days 1 and 14): increased with dose in a broadly proportionate manner
- genotoxicity, bacterial reverse mutation assay [13]: negative
- stability: appearance and purity of drug substance [14]: no changes to appearance or purity
- induction of CYP2B6 (CYP2B6): no potential for induction
